Patent publication US8906911B2, “Chemokine receptor antagonists” (AbbVie Inc., priority 2012, dated 2014)
Read-outs that look alike come from different tables or passages of the source.

Tests used:
rat CCR2 = rat CCR2 (Rattus norvegicus (Rat), UniProt O55193); test: Inhibition of native agonist (rat MCP-1)-induced intracellular calcium release, calcium flux assay in CHO cells expressing rat CCR2 and Gα16; format: cell-based; settings: read-out: rCCR2 Kb
Summary of the method: (§1)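 Compound added to Calcium 4 dye-loaded adherent cells (dye loading 60 min, 37° C., HEPES pH 7.4 buffer with probenecid), then agonist: human MCP-1 at 2 nM final for hCCR2B cells, rat MCP-1 at 4 nM final for rCCR2 cells. FLIPR fluorescence change gave IC50. Kb=IC50/(1+[agonist]/EC50). Final DMSO 0.25%.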

human CCR2B [1] = biological target: T1, human CCR2B (Homo sapiens (Human), UniProt P41597); test: Inhibition of [125I]-labeled MCP-1 binding to hCCR2B (radioligand binding in CHO cells); settings: mean Ki; [125I]-MCP-1 50 pM; CHO cells expressing human CCR2B and Gα16
T1 sequence (P41597 other isoform, or with tags, fused parts or gaps): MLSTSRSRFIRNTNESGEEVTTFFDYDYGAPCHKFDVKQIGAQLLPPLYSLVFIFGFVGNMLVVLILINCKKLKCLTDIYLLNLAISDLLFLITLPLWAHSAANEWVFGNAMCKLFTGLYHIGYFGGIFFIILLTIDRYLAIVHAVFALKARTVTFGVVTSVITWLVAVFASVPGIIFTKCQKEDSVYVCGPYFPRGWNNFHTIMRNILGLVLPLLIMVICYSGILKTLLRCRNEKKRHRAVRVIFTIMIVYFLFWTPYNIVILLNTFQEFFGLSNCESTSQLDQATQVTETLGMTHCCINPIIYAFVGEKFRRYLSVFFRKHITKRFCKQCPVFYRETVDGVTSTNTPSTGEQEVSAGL
Source text: CHO cells expressing human CCR2B were generated as follows. cDNA for human CCR2B (cloned from human blood) was cloned into plasmid pcDNA3.1 (from Invitrogen). The resulting plasmids were separately transfected into CHO cells expressing human Gα16 (from Molecular Devices). […] CHO cells expressing rat CCR2 were generated as follows. cDNA for rat CCR2 (cloned from rat macrophage) was cloned into plasmid pEF-flag (from Chinese Academy of Science). The resulting plasmids were transfected into CHO cells expressing human Gα16 (from […]).
Inhibition of [^125I]-Labeled MCP-1 Binding to hCCR2B
Radioligand binding assays were performed in CHO cells expressing human CCR2B and Gα16 coupling protein. All compounds were dissolved in DMSO and assays run at a final DMSO concentration of 0.5% (v/v). [^125I]-labeled human MCP-1 was purchased from PerkinElmer. Unlabelled human MCP-1 was purchased from PeproTech.
Compounds were serially diluted in DMSO before diluting into assay buffer (25 mM HEPES, pH 7.4, 5 mM MgCl2, 1 mM CaCl2, 0.5% BSA) with cryo preserved CHO cells expressing human CCR2B and the Gα16 coupling protein (30×10^3/well) and [^125I]-MCP-1 (50 pM). The reaction was incubated at room temperature for 90 minutes before transferring to GF/C filter membrane (PerkinElmer) pre-treated with 0.3% polyethyleneimine for 2 hours at 4° C. The filter membrane was washed six times with ice cold wash buffer (25 mM HEPES, pH 7.4, 5 mM MgCl2, 1 mM CaCl2, 500 mM NaCl, 0.01% (m/v) azide), dried, and sealed in a RLB sample bag (Agilent Technologies) before adding 5.0 mL Microscint 20 to each bag. Membrane was counted on Microbeta counter where background binding was determined by the presence of 100 nM MCP-1 and control total binding was determined by addition of DMSO in place of the test compound. The radioactivity values (cpm) were used to calculate the percent inhibition at a given compound concentration and the data fit to a sigmoidal curve in a semi-log plot to determine IC50 values. The corresponding Ki value is calculated as follows:
Ki=IC50/(1+[radioligand]/Kd), where [radioligand] is the concentration of the label and Kd (dissociation constant) is determined in saturation experiment with different concentrations of labeled MCP-1.

human CCR2B [2] = biological target: T1, human CCR2B; test: Inhibition of native agonist (human MCP-1)-induced intracellular calcium release, calcium flux assay in CHO cells expressing human CCR2B and Gα16; format: cell-based; settings: for IC50: read-out: hCCR2B IC50; for Kb: read-out: hCCR2B Kb
Summary of the method: as §1

Sequence of rat CCR2 (O55193 whole entry): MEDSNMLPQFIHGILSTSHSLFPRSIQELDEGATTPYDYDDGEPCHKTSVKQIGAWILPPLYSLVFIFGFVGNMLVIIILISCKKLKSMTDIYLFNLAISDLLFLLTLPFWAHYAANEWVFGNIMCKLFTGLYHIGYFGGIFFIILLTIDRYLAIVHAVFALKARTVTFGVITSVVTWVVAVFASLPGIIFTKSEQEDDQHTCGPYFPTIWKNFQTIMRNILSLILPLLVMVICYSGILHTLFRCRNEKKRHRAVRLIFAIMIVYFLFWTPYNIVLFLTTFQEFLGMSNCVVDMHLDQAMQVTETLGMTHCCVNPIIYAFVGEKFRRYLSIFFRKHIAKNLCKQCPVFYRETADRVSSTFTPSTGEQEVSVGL

IC50 (human CCR2B [2]; calcium flux, human MCP-1 2 nM) [nM]	SMILES	Kb (rat CCR2) [nM]	Ki (human CCR2B [1]) [nM]	Kb (human CCR2B [2]) [nM]	IC50 (human CCR2B [2]) [nM]
19.8	CO[C@@H]1COCC[C@@H]1N[C@@H]1C[C@H]2CCC[C@@]2(C(=O)N2C[C@@H]3C[C@H]2CN3c2cc(C(F)(F)F)ccc2C#N)C1 [Example 28, 1,5-anhydro-3-{[(2R,3aR,6aR)-3a-({(1S,4S)-5-[2-cyano-5-(trifluoromethyl)phenyl]-2,5-diazabicyclo[2.2.1]hept-2-yl}carbonyl)octahydropentalen-2-yl]amino}-2,3-dideoxy-4-O-methyl-D-erythro-pentitol]	5	32	5	–
148	CO[C@@H]1COCC[C@@H]1N[C@@H]1C[C@H]2CCC[C@@]2(C(=O)N2C[C@@H]3C[C@H]2CN3c2cccc(OC(F)(F)F)c2)C1 [Example 29, 1,5-anhydro-2,3-dideoxy-4-O-methyl-3-{[(2R,3aR,6aR)-3a-({(1S,4S)-5-[3-(trifluoromethoxy)phenyl]-2,5-diazabicyclo[2.2.1]hept-2-yl}carbonyl)octahydropentalen-2-yl]amino}-D-erythro-pentitol]	8	473	36	–
95.5	CO[C@@H]1COCC[C@@H]1N[C@@H]1C[C@H]2CCC[C@@]2(C(=O)N2C[C@@H]3C[C@H]2CN3c2nc(C(F)(F)F)cs2)C1 [Example 30, 1,5-anhydro-2,3-dideoxy-4-O-methyl-3-{[(2R,3aR,6aR)-3a-({(1S,4S)-5-[4-(trifluoromethyl)-1,3-thiazol-2-yl]-2,5-diazabicyclo[2.2.1]hept-2-yl}carbonyl)octahydropentalen-2-yl]amino}-D-erythro-pentitol]	4	831	23	–
314	CO[C@@H]1COCC[C@@H]1N[C@@H]1C[C@H]2CCC[C@@]2(C(=O)N2C[C@@H]3C[C@H]2CN3c2ncc(C(F)(F)F)cc2Cl)C1 [Example 32, 1,5-anhydro-3-{[(2R,3aR,6aR)-3a-({(1S,4S)-5-[3-chloro-5-(trifluoromethyl)pyridin-2-yl]-2,5-diazabicyclo[2.2.1]hept-2-yl}carbonyl)octahydropentalen-2-yl]amino}-2,3-dideoxy-4-O-methyl-D-erythro-pentitol]	44	1060	77	–
305	CO[C@@H]1COCC[C@@H]1N[C@@H]1C[C@H]2CCC[C@@]2(C(=O)N2C[C@@H]3C[C@H]2CN3c2cc(C#N)ccc2C(F)(F)F)C1 [Example 36, 1,5-anhydro-3-{[(2R,3aR,6aR)-3a-({(1S,4S)-5-[5-cyano-2-(trifluoromethyl)phenyl]-2,5-diazabicyclo[2.2.1]hept-2-yl}carbonyl)octahydropentalen-2-yl]amino}-2,3-dideoxy-4-O-methyl-D-erythro-pentitol]	24	1060	75	–
41.5	CO[C@@H]1COCC[C@@H]1N[C@@H]1C[C@H]2CCC[C@@]2(C(=O)N2C[C@@H]3C[C@H]2CN3c2ccc(Cl)c(Cl)c2)C1 [Example 40, 1,5-anhydro-2,3-dideoxy-3-{[(2R,3aR,6aR)-3a-{[(1S,4S)-5-(3,4-dichlorophenyl)-2,5-diazabicyclo[2.2.1]hept-2-yl]carbonyl}octahydropentalen-2-yl]amino}-4-O-methyl-D-erythro-pentitol]	3	38	10	–
–	CO[C@@H]1COCC[C@@H]1N[C@@H]1C[C@H]2CCC[C@@]2(C(=O)N2C[C@@H]3C[C@H]2CN3c2ccc(Cl)c(C#N)c2)C1 [Example 47, 1,5-anhydro-3-{[(2R,3aR,6aR)-3a-{[(1S,4S)-5-(4-chloro-3-cyanophenyl)-2,5-diazabicyclo[2.2.1]hept-2-yl]carbonyl}octahydropentalen-2-yl]amino}-2,3-dideoxy-4-O-methyl-D-erythro-pentitol]	4	77	12	49.8
–	N#Cc1ccc(C(F)(F)F)cc1N1C[C@@H]2C[C@H]1CN2C(=O)[C@@]12CCC[C@@H]1C[C@@H](N1CCC(c3ccccc3)CC1)C2 [Example 48, 2-[(1S,4S)-5-{[(2R,3aR,6aR)-2-(4-phenylpiperidin-1-yl)hexahydropentalen-3a(1H)-yl]carbonyl}-2,5-diazabicyclo[2.2.1]hept-2-yl]-4-(trifluoromethyl)benzonitrile]	17	8	13	51.8
–	O=C(N1C[C@@H]2C[C@H]1CN2c1cc(C(F)(F)F)ccn1)[C@@]12CCC[C@@H]1C[C@@H](N1CCC(c3ccccc3)CC1)C2 [Example 49, [(2R,3aR,6aR)-2-(4-phenylpiperidin-1-yl)hexahydropentalen-3a(1H)-yl]{(1S,4S)-5-[4-(trifluoromethyl)pyridin-2-yl]-2,5-diazabicyclo[2.2.1]hept-2-yl}methanone]	23	15	9	37
–	CO[C@@H]1COCC[C@@H]1N[C@@H]1C[C@H]2CCC[C@@]2(C(=O)N2C[C@@H]3C[C@H]2CN3c2cc(C(F)(F)F)ccc2C(F)(F)F)C1 [Example 50, 1,5-anhydro-3-{[(2R,3aR,6aR)-3a-({(1S,4S)-5-[2,5-bis(trifluoromethyl)phenyl]-2,5-diazabicyclo[2.2.1]hept-2-yl}carbonyl)octahydropentalen-2-yl]amino}-2,3-dideoxy-4-O-methyl-D-erythro-pentitol]	6	78	6	25.9
–	CO[C@@H]1COCC[C@@H]1N(C)[C@@H]1C[C@H]2CCC[C@@]2(C(=O)N2C[C@@H]3C[C@H]2CN3c2cc(C(F)(F)F)ccc2C(F)(F)F)C1 [Example 52, 1,5-anhydro-3-{[(2R,3aR,6aR)-3a-({(1S,4S)-5-[2,5-bis(trifluoromethyl)phenyl]-2,5-diazabicyclo[2.2.1]hept-2-yl}carbonyl)octahydropentalen-2-yl](methyl)amino}-2,3-dideoxy-4-O-methyl-D-erythro-pentitol]	38	49	21	83.9
–	CO[C@@H]1COCC[C@@H]1N(C)[C@@H]1C[C@H]2CCC[C@@]2(C(=O)N2C[C@@H]3C[C@H]2CN3c2cc(C(F)(F)F)ccc2C#N)C1 [Example 53, 1,5-anhydro-3-{[(2R,3aR,6aR)-3a-({(1S,4S)-5-[2-cyano-5-(trifluoromethyl)phenyl]-2,5-diazabicyclo[2.2.1]hept-2-yl}carbonyl)octahydropentalen-2-yl](methyl)amino}-2,3-dideoxy-4-O-methyl-D-erythro-pentitol]	26	16	12	47.9

SMILES	IC50 (human CCR2B [2]; calcium flux, human MCP-1 2 nM) [nM]	Kb (rat CCR2) [nM]	Ki (human CCR2B [1]) [nM]	Kb (human CCR2B [2]) [nM]	IC50 (human CCR2B [2]) [nM]
CO[C@@H]1COCC[C@@H]1N(C)[C@@H]1C[C@H]2CCC[C@@]2(C(=O)N2C[C@@H]3C[C@H]2CN3c2ccc(Cl)c(C(F)(F)F)c2)C1 [Example 51, 1,5-anhydro-3-{[(2R,3aR,6aR)-3a-({(1S,4S)-5-[4-chloro-3-(trifluoromethyl)phenyl]-2,5-diazabicyclo[2.2.1]hept-2-yl}carbonyl)octahydropentalen-2-yl](methyl)amino}-2,3-dideoxy-4-O-methyl-D-erythro-pentitol]	43.3	29	21	11	–
CO[C@@H]1COCC[C@@H]1N(C)[C@@H]1C[C@H]2CCC[C@@]2(C(=O)N2C[C@@H]3C[C@H]2CN3c2ccc(C#N)c(C(F)(F)F)c2)C1 [Example 56, 1,5-anhydro-3-{[(2R,3aR,6aR)-3a-({(1S,4S)-5-[4-cyano-3-(trifluoromethyl)phenyl]-2,5-diazabicyclo[2.2.1]hept-2-yl}carbonyl)octahydropentalen-2-yl](methyl)amino}-2,3-dideoxy-4-O-methyl-D-erythro-pentitol]	46	9	32	11	–
